In patent publication US3943172A, “Derivatives of 2-amino-(1,2,3,4-tetrahydronaphthalene), the preparation and use thereof” (priority 1972, dated 1976):

Key:
[1] = system: premature heart contractions; test: oral antiarrhythmic activity in rats using aconitine (dose of aconitine to first extrasystoles); format: in vivo; settings: 75 mg/kg, 75 minutes before aconitine perfusion, acid addition salts; for % Activity versus Lidocaine: relative to lidocaine; for % Activity versus Procainamide: relative to procainamide
Experimental: The method used for these tests is described hereafter:
Male or female rats with a body-weight ranging from 380 to 450 g.
3.12 μg aconitine nitrate/1 ml physiological saline.
Solution of the compound to be tested:
0.75% in distilled water.
Six random selected animals are required for each compound to be tested. The compound is administered by oral route at the dose of 75 mg/kg (1 ml of the 0.75% solution/100 g of body-weight) 75 minutes before the intravenous perfusion of the aconitine solution is initiated.
Control groups of animals are treated only with distilled water (1 ml/100 g).
60 minutes after the administration of the compound to be tested, the animals are anesthesized by an intraperitoneal injection of Pentobarbital (50 mg/kg) and the jugular vein is dissected.
A catheter is introduced in the vein and fixed by a ligature.
The ECG (D II derivation) is then continuously recorded. The perfusion of the aconitine solution is started 75 minutes after the administration of the compound to be tested.
The volume delivered by the injection device being 0.287 ml/minute, the dose of aconitine nitrate administered is 0.895 μg/minute (0.20 - 0.24 μg/100 g/minute according to the minimal and maximal weight of the animals).
The experience is stopped as soon as the first extrasystoles are appearing and the time elapsed from the beginning of the perfusion is noted.
The results are expressed as the mean total dose of aconitine injected in a group of animals.
The relative activity between a tested compound and a reference substance (lidocaine, procainamide) is computed in the following way: [formula] where: A(x) = activity of tested compound X (in %)
X = mean dose of aconitine in the animals treated by compound X
C = mean dose of aconitine injected in the untreated animals (controls)
R = mean dose of aconitine injected in the animals treated by the reference substances.

[2] = system: tachycardias and fibrillation of ventricular origin; settings: cited from earlier work; for oral activity: known antiarrhythmic agents, in words

SMILES | % Activity versus Lidocaine [1] [%] | % Activity versus Procainamide [1] [%] | oral activity [2] | side effects [2]
CCN(CC)CCN(c1ccccc1)C1CCc2ccccc2C1 (stereo not drawn) [1 H2 H N-diethyl, 2-[N-phenyl-N-(β-diethylaminoethyl)]-amino(1,2,3,4-tetrahydronaphthalene)] | 439 | 560 | – | –
CCN(CC)CCN(c1ccccc1)C1CCc2cc(OC)ccc2C1 (stereo not drawn) [1 H2 OCH3 N-diethyl, 2-[N-phenyl-N-(β-diethylaminoethyl)]-amino-6-methoxy-(1,2,3,4-tetrahydronaphthalene)] | 173 | 220 | – | –
COc1ccc2c(c1)CCC(N(CCN(C)C)c1ccccc1)C2 (stereo not drawn) [1 H2 OCH3 N-dimethyl, 2-[N-phenyl-N-(β-dimethylaminoethyl)]-amino-6-methoxy-(1,2,3,4-tetrahydronaphthalene)] | 57 | 72 | – | –
COc1ccc2c(c1)CCC(N(CCN1CCCCC1)c1ccccc1)C2 (stereo not drawn) [1 H2 OCH3 piperidino, 2-[N-phenyl-N-(β-piperidinoethyl)]-amino-6-methoxy-(1,2,3,4-tetrahydronaphthalene)] | 103 | 131 | – | –
CNCCC(=O)N(c1ccccc1)C1CCc2ccccc2C1 (stereo not drawn) [2 0 H NH-methyl, 2-[N-phenyl-N-(β-methylaminopropionyl)]-amino-(1,2,3,4-tetrahydronaphthalene)] | 769 | 982 | – | –
CCN(CC)CCCN(c1ccccc1)C1CCc2ccccc2C1 (stereo not drawn) [2 H2 H N-diethyl, 2-[N-phenyl-N-(γ-diethylaminopropyl)]-amino-(1,2,3,4-tetrahydronaphthalene)] | 563 | 719 | – | –
CN(C)CCCN(c1ccccc1)C1CCc2ccccc2C1 (stereo not drawn) [2 H2 H N-dimethyl, 2-[N-phenyl-N-(γ-dimethylaminopropyl)]-amino-(1,2,3,4-tetrahydronaphthalene)] | 41 | 52 | – | –
CCNCCCN(c1ccccc1)C1CCc2ccccc2C1 (stereo not drawn) [2 H2 H NH-ethyl, 2-[N-phenyl-N-(γ-ethylaminopropyl)]-amino-(1,2,3,4-tetrahydronaphthalene)] | 703 | 897 | – | –
CNCCCN(c1ccccc1)C1CCc2ccccc2C1 (stereo not drawn) [2 H2 H NH-methyl, 2-[N-phenyl-N-(γ-methylaminopropyl)]-amino-(1,2,3,4-tetrahydronaphthalene)] | 288 | 368 | – | –
c1ccc(N(CCCN2CCCCC2)C2CCc3ccccc3C2)cc1 (stereo not drawn) [2 H2 H piperidino, 2-[N-phenyl-N-(γ-piperidinopropyl)]-amino-(1,2,3,4-tetrahydronaphthalene)] | 62 | 78 | – | –
c1ccc(N(CCCN2CCCC2)C2CCc3ccccc3C2)cc1 (stereo not drawn) [2 H2 H pyrrolidino, 2-[N-phenyl-N-(γ-pyrrolidinopropyl)]-amino-(1,2,3,4-tetrahydronaphthalene)] | 268 | 342 | – | –
CCN(CC)CCCN(c1ccccc1)C1CCc2cc(OC)ccc2C1 (stereo not drawn) [2 H2 OCH3 N-diethyl, 2-[N-phenyl-N-(γ-diethylaminopropyl)]-amino-6-methoxy-(1,2,3,4-tetrahydronaphthalene)] | 96 | 123 | – | –
CCN(CC)CC(=O)Nc1c(C)cccc1C [lidocaine] | – | – | too low | –
CCN(CC)CCNC(=O)c1ccc(N)cc1 [procainamide] | – | – | too short | hypotension
